# Marks after values point to notes of the source that are not given here.
# Legend:
# U2OS-ERα cells [1] = test: Affymetrix U95Av2 microarray, U2OS-ERα cells; format: cell-based, human
# Method: (§1) To identify genes regulated by ERα and/or ERβ, the U2OS-ERα and U2OS-ERβ cell lines were treated with doxycycline for 18 h in the absence or presence of 10 nM E2. Total RNA was used to prepare cRNA for hybridization with the human U95Av2 Affymetrix microarrays, which contain 12,600 known genes. Six sets of comparative expression data of untreated vs. each treated group were used to determine the genes regulated in ERα or ERβ cells.
# (§2) Microarray data obtained from human Affymetrix U95Av2 gene chips from untreated vs. ligand-treated samples were analyzed using the Affymetrix Microarray Suite Version 5.0. Candidate genes displaying a statistically significant (p<0.05) increase or decrease signal changes relative to controls in at least three experiments were further selected by a ±0.8 signal log ratio mean cut-off. […] Fold-changes in the U2OS-ERα and U2OS-ERβ samples (in parentheses) were calculated relative to the untreated samples.
# U2OS-ERβ cells [2] = test: Affymetrix U95Av2 microarray, U2OS-ERβ cells; format: cell-based, human
# Method: as §1, §2
# U2OS-ERα cells [3] = details: 1 μM raloxifene, 18 h, relative to untreated
# human ERβ = molecular target: T1, human ERβ (Homo sapiens, UniProt Q92731); test: ERE-tk-Luc reporter activation in U2OS cells transfected with ERβ; format: cell-based; details: activation by MF101 (MF101 and estradiol)
# T1 construct: expressed in transfected cells; host or cells: U2OS osteosarcoma cells
# T1 sequence (Q92731 whole entry): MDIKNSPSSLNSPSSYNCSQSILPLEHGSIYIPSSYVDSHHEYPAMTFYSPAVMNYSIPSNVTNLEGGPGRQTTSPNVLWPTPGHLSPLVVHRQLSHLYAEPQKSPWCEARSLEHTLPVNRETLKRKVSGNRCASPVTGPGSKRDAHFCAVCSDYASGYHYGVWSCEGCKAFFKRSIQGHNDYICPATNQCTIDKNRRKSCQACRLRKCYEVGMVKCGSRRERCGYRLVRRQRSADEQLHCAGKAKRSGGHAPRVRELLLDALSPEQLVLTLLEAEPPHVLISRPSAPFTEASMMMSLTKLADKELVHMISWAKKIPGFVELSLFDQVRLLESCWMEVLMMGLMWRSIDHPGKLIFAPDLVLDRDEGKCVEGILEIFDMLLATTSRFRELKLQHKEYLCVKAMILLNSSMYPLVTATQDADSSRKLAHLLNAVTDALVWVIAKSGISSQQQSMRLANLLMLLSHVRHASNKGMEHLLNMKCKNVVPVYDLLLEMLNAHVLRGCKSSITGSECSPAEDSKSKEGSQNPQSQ
# [4] = test system: U2OS-ERα and U2OS-ERβ cell lines; test: Affymetrix U95Av2 microarray, both U2OS-ERα and U2OS-ERβ cell lines; format: cell-based, human
# U2OS-ERβ cells [5] = test: Affymetrix U95Av2 microarray, U2OS-ERβ cells; format: cell-based, human; details: 1 μM raloxifene, 18 h
# U2OS-ERβ cells [6] = details: 1 μM raloxifene, 18 h, relative to untreated
# U2OS-ERα cells [7] = test: Affymetrix U95Av2 microarray, U2OS-ERα cells; format: cell-based, human; details: 1 μM raloxifene, 18 h
# breast cancer graft = test: Breast cancer graft growth, control vs DES vs MF101; format: in vivo
# Text: (§3) In a similar experiment, the effect of MF101 on breast cancer cells was compared to that of diethylstilbestrol (DES). […] FIGS. 3G and 3H show the effect of control, DES and MF101 on a breast cancer graft mass (FIG. 3G) and a uterine horn mass (FIG. 3H).
# uterine horn = test: Uterine horn mass, control vs DES vs MF101; format: in vivo
# Text: as §3
# [8] = test system: U2OS-ERα and U2OS-ERβ cell lines; test: Affymetrix U95Av2 microarray, both U2OS-ERα and U2OS-ERβ cell lines; format: cell-based, human; details: for genes Activated, α + β / genes Repressed, α + β: 10 nM E2 or 1 μM tamoxifen
# Method: as §1, §2
# MCF-7 cells = test: [3H] thymidine incorporation in adenovirus-infected MCF-7 cells; format: cell-based, human; details: presence of E2; 10 days
# Method: To investigate the role of ERα in breast cancer, the effects of E2 on cell proliferation in MCF-7 cells that express only ERα were studied. […] (An, supra, 2001). […] To investigate the role of ERβ on the proliferation of breast cancer cells, an adenovirus (Ad) was used to deliver ERβ into a high percentage of cells. MCF-7 cells were infected for 24 h with Ad-ERβ or Ad-LacZ to control for potential non-specific effects of the virus. The infected cells were grown for 10 days in the absence or presence of E2, after which DNA synthesis was measured by [3H] thymidine incorporation in vitro. […] E2 augmented the inhibition of cell proliferation to 70% in the Ad-ERβ-infected cells. Similar results were observed using 100 multiplicity of infection (MOI) of Ad-ERβ. The observation that the inhibition of cell proliferation by ERβ was predominantly ligand-independent may result from residual E2 in stripped serum or retained in cells infected with ERβ, or unliganded properties of […].
# [9] = 10 nM E2, 1 μM raloxifene or 1 μM tamoxifen, 18 h
# [10] = 1 μM raloxifene or 1 μM tamoxifen, 18 h
compound,measurement,setting,value
O=C(c1ccc(OCCN2CCCCC2)cc1)c1c(-c2ccc(O)cc2)sc2cc(O)ccc12 [raloxifene],"genes Activated, α only",U2OS-ERα cells [1]; [9],10 genes
same,"genes Activated, α only, relative percentage",U2OS-ERα cells [1]; [9],(5.3%)
same,"genes Repressed, α only",U2OS-ERα cells [1]; [9],10 genes
same,"genes Repressed, α only, relative percentage",U2OS-ERα cells [1]; [9],(5.3%)
same,"genes Activated, β only",U2OS-ERβ cells [2]; [9],52 genes
same,"genes Activated, β only, relative percentage",U2OS-ERβ cells [2]; [9],(27.4%)
same,"genes Repressed, β only",U2OS-ERβ cells [2]; [9],101 genes
same,"genes Repressed, β only, relative percentage",U2OS-ERβ cells [2]; [9],(53.2%)
same,"Fold-change by real-time PCR, NKG2C (α)",U2OS-ERα cells [3],7.54 fold
same,blockade of ERE-tk-Luc activation through ERβ,human ERβ,blocked
same,"common genes with opposite expression patterns (*), relative percentage",[4]; [10],(8.9%)
same,common genes with opposite expression patterns in ERα compared to ERβ cells (*),[4]; [10],17* genes
same,"Mean signal log ratio ± S.E., NKG2C (β)",U2OS-ERβ cells [5],−5.20 ± 0.08
same,"Fold-change by real-time PCR, NKG2C (β)",U2OS-ERβ cells [6],0.36 fold
same,"Mean signal log ratio ± S.E., NKG2C (α)",U2OS-ERα cells [7],2.40 ± 0.82
"CC/C(=C(/CC)c1ccc(O)cc1)c1ccc(O)cc1 [DES, diethylstilbestrol]",growth of xenograft (breast cancer graft mass),breast cancer graft; vs control,substantial increase
same,proliferation of breast cancer cells (FIGS. 3D-3F),breast cancer graft; vs control-treated,proliferation-stimulating effect
same,uterine horn growth (mass),uterine horn,substantial increase
CC/C(=C(\c1ccccc1)c1ccc(OCCN(C)C)cc1)c1ccccc1 [tamoxifen],"genes Activated, α only",U2OS-ERα cells [1]; [9],21 genes
same,"genes Repressed, α only",U2OS-ERα cells [1]; [9],38 genes
same,"genes Activated, α + β",[8]; 18 h,1 genes
same,"genes Repressed, α + β",[8]; 18 h,9 genes
same,"genes Activated, β only",U2OS-ERβ cells [2]; [9],26 genes
same,"genes Repressed, β only",U2OS-ERβ cells [2]; [9],129 genes
same,share of genes regulated by tamoxifen also regulated by raloxifene,[4],27%
same,common genes with opposite expression patterns in ERα compared to ERβ cells (*),[4]; [10],12* genes
C[C@]12CC[C@@H]3c4ccc(O)cc4CC[C@H]3[C@@H]1CC[C@@H]2O [estradiol],genes regulated only in the U2OS-ERα cells,U2OS-ERα cells [1]; 10 nM E2,65 genes
same,"genes Activated, α only",U2OS-ERα cells [1]; [9],33 genes
same,"genes Repressed, α only",U2OS-ERα cells [1]; [9],32 genes
same,share of genes regulated by both ERα and ERβ,[8]; 10 nM E2,17%
same,genes regulated in U2OSα and U2OSβ cell lines,"[8]; 10 nM E2, 1 μM raloxifene or 1 μM tamoxifen, 18 h, p<0.05, listed as E2",228 genes
same,genes regulated by both ERα and ERβ,"[8]; 10 nM E2, of the 228",38 genes
same,"genes Activated, α + β",[8]; 18 h,34 genes
same,"genes Repressed, α + β",[8]; 18 h,4 genes
same,inhibition of cell proliferation in Ad-ERβ-infected MCF-7 cells,MCF-7 cells,70%
same,genes regulated only in the U2OS-ERβ cells,U2OS-ERβ cells [2]; 10 nM E2,125 genes
same,"genes Activated, β only",U2OS-ERβ cells [2]; [9],87 genes
same,"genes Repressed, β only",U2OS-ERβ cells [2]; [9],38 genes

# — US20090311349A1, “METHOD OF QUANTIFICATION OF MULTIPLE BIOACTIVES FROM BOTANICAL COMPOSITIONS” (priority 2008, published 2009)
